Where two headings read alike, the source gives them in different places.
Assays:
[1] = biological target: ErbB2 insYVMA (HER2-YVMA, SEQ ID NO: 2) (Homo sapiens, UniProt P04626, INS775YVMA/P1170A); assay: biochemical; conditions: ErbB2 insYVMA enzyme assay
ErbB2 WT = ErbB2 WT (Homo sapiens (Human), UniProt P04626); assay: ErbB enzyme assay (CisBio HTRF KinEASE-TK), Assay 2; type: biochemical
In short: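 ErbB2 phosphorylates 250 nM biotin-TK substrate at 1 mM ATP in 25 mM HEPES pH 7.4, 10 mM MgCl2, 0.01% Triton X-100 and 2% DMSO, for 30 min at 22 °C. Product is detected by HTRF with Sa-XL665 and TK-Ab-Cryptate. Percent of control is set by DMSO-only wells and pre-quenched wells.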

EGFR = EGFR (Homo sapiens (Human), UniProt P00533); assay: ErbB enzyme assay (CisBio HTRF KinEASE-TK), Assay 3; type: biochemical
In short: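 Kinase incubated 30 min at 22 °C with 250 nM biotinylated TK substrate, 1 mM ATP and serially diluted compound in 25 mM HEPES pH 7.4, 10 mM MgCl2, 0.01% Triton X-100, 2% DMSO. Phosphorylation read by HTRF (Sa-XL665/TK-Ab-Cryptate); IC50 from 4-parameter fit of percent of control.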

[2] = biological target: ErbB2 with Exon 20 YVMA insertion (HER2-YVMA) (Homo sapiens (Human), UniProt P04626, INS775YVMA); assay: Cellular phosphorylation assay, constitutive ErbB2 phosphorylation (Y1196) in engineered NIH 3T3 cells, Assay 4; type: cell-based
In short: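 Engineered NIH 3T3 cells expressing HER2-YVMA treated with compounds 1 h at 37 °C, then formaldehyde-fixed and methanol-permeabilized. pErbB2 Y1196 detected by in-cell infrared immunofluorescence, normalized to GAPDH. IC50 from the normalized curves.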

EGFR wild type (EGFR WT) = EGFR wild type (EGFR WT) (Homo sapiens (Human), UniProt P00533); assay: Cellular phosphorylation assay, EGF-stimulated EGFR phosphorylation in engineered NIH 3T3 cells, Phospho-EGFR DuoSet IC ELISA, Assay 5; type: cell-based
In short: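 NIH 3T3 cells expressing EGFR WT (20,000/well, attached overnight) were exposed to serially diluted compound for 1 h at 37 °C, then stimulated with 100 ng/ml rEGF for 10 min. Phospho-EGFR in lysates measured by sandwich ELISA optical density; IC50 from curves.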

MDR1 (P-gp) = MDR1 (P-gp) (Homo sapiens (Human), UniProt P08183); assay: MDR1 transfected MDCKII canine Mdr1 knockout permeability/efflux, Assay 7; conditions: dog, MDCK-MDR1
Chain of MDR1 (P-gp) (P08183 whole entry): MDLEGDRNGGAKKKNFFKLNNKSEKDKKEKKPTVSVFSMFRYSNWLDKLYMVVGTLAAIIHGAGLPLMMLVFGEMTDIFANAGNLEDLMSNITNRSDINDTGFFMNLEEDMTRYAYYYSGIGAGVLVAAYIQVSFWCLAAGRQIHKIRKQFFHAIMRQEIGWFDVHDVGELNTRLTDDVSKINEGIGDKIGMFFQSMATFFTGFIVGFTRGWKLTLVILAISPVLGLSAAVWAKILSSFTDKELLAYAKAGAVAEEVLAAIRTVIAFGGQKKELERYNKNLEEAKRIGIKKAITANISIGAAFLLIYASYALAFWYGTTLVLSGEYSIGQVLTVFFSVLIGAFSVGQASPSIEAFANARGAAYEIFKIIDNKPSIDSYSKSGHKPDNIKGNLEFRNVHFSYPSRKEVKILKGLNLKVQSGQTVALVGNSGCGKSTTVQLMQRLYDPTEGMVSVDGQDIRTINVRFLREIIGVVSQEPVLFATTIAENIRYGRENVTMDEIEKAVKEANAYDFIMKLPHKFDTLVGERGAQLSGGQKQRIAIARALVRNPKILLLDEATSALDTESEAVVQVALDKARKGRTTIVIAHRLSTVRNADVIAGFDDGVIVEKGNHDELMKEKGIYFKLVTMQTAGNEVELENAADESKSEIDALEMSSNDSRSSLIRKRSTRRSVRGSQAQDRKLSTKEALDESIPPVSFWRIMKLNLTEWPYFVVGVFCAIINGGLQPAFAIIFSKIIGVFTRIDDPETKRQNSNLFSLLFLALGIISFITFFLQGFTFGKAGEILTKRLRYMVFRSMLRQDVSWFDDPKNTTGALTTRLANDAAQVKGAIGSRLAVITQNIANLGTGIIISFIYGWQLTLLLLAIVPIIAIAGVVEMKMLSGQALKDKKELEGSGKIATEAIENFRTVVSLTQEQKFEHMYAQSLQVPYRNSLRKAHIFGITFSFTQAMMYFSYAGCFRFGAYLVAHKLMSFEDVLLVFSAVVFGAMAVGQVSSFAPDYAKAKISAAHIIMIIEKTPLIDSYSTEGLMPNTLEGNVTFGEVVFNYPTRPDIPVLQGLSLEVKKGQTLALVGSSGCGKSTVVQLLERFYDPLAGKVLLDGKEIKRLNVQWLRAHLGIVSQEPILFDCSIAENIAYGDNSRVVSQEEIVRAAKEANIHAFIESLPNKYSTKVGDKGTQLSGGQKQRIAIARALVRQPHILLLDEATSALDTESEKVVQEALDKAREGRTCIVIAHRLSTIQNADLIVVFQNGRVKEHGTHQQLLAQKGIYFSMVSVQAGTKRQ

Chain of ErbB2 with Exon 20 YVMA insertion (HER2-YVMA) (P04626 other isoform, or with tags, fused parts or gaps ins YVMA behind 775): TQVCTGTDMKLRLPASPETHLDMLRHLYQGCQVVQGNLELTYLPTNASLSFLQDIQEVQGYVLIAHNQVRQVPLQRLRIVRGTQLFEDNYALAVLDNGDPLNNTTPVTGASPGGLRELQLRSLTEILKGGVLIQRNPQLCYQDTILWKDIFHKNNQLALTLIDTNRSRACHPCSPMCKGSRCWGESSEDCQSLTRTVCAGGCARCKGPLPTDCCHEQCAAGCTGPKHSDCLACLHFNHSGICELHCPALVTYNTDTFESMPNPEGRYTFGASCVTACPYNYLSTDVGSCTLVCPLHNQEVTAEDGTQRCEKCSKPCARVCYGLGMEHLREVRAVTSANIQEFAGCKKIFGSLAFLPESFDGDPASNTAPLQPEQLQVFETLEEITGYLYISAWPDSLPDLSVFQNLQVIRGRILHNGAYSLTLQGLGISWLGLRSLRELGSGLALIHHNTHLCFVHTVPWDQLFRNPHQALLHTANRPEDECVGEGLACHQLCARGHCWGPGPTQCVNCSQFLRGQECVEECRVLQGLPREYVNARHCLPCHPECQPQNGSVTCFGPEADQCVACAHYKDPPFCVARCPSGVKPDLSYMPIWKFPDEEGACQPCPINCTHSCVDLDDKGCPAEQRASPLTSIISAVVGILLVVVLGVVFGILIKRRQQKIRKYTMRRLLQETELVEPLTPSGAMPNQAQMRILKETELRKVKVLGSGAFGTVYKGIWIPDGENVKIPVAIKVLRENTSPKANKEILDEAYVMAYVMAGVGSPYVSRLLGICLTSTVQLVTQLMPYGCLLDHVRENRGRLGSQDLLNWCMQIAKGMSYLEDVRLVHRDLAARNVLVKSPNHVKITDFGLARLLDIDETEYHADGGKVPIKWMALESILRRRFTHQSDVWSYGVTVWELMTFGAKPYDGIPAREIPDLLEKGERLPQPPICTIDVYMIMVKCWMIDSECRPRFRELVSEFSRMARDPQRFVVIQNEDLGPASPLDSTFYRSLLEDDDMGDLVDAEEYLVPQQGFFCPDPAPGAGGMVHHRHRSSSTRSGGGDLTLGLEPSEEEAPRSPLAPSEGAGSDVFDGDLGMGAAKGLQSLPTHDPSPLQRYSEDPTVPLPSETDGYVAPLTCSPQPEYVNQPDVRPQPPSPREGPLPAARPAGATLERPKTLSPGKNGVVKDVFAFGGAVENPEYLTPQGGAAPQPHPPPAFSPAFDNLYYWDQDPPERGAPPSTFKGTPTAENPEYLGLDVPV
Chain of ErbB2 WT (P04626 23-1255): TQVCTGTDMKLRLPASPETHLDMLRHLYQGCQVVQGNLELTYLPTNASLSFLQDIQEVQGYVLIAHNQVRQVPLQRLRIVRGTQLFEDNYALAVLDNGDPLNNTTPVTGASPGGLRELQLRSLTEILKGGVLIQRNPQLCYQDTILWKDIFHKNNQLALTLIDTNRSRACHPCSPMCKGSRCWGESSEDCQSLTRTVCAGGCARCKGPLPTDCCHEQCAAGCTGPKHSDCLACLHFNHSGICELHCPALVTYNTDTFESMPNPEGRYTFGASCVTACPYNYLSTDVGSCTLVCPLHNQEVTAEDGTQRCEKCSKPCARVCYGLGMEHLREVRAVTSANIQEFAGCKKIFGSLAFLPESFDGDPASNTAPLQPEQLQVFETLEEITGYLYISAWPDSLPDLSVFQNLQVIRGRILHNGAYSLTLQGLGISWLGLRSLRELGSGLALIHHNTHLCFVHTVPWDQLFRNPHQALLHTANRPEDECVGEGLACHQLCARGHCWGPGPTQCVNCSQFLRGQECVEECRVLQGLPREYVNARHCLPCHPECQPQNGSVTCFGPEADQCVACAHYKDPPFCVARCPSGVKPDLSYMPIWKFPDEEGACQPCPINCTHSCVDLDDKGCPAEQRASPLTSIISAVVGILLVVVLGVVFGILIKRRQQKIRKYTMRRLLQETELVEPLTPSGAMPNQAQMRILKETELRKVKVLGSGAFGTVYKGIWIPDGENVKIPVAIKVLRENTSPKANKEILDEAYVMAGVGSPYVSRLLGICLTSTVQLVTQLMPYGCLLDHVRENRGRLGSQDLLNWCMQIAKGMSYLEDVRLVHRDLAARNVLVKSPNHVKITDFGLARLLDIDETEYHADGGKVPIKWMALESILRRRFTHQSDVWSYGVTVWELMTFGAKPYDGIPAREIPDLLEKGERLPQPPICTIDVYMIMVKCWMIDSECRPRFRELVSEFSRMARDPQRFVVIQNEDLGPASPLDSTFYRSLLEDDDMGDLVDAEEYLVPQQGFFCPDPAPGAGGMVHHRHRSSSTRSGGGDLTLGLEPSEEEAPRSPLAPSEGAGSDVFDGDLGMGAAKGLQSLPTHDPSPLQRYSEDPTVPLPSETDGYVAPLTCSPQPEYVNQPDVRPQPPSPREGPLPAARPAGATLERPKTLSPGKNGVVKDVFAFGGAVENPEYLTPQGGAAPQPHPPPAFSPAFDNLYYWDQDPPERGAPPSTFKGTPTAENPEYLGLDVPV
Chain of EGFR (P00533 25-1210): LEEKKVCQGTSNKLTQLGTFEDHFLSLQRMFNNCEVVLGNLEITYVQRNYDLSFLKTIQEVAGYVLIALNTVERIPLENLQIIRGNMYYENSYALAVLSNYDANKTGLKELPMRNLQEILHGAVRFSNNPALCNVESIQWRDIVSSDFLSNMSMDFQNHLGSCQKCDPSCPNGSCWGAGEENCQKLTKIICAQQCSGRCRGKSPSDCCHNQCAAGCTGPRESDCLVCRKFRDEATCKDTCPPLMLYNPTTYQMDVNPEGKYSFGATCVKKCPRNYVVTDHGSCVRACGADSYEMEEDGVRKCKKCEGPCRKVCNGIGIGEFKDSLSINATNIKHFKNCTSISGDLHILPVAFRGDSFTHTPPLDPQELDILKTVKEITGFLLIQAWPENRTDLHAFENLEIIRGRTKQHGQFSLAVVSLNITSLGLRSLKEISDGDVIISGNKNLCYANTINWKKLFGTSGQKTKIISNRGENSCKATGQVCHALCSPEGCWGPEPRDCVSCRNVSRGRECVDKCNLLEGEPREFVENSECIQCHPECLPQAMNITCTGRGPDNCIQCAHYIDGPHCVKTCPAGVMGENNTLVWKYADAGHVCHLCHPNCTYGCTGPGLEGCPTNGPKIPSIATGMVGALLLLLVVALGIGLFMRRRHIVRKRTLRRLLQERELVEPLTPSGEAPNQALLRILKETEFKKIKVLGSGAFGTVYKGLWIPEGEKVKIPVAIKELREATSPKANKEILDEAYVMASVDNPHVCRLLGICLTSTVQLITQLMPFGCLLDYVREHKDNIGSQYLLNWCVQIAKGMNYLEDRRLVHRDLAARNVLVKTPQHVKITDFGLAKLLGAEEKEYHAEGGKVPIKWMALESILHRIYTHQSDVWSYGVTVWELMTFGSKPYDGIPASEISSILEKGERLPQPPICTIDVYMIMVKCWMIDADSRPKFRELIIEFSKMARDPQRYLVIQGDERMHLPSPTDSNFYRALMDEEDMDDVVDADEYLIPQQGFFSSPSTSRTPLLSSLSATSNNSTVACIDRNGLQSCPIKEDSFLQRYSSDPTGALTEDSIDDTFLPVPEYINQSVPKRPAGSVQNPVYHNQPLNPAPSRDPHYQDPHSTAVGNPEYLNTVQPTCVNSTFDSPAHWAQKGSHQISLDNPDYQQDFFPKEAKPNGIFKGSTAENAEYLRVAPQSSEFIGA

Cn1cnc2cc(Oc3ccc(Nc4ncnc5cnc(N6CC7C8CCC(O8)C7C6)nc45)cc3Cl)ccc21.O=C(O)C(F)(F)F (stereo not drawn) [Example 149, N-(3-chloro-4-((1-methyl-1H-benzo[d]imidazol-5-yl)oxy)phenyl)-6-(octahydro-2H-4,7-epoxyisoindol-2-yl)pyrimido[5,4-d]pyrimidin-4-amine]
IC50 ([1]; Assay 1 IC50 (nM)): 99 nM | IC50 (ErbB2 WT): 102 nM | IC50 (EGFR): ≥ 10000 nM | IC50 [2]: 26.5 nM | IC50 (EGFR wild type (EGFR WT)): ≥ 5000 nM | efflux ratio at 2 h, 1 μM (MDR1 (P-gp)): 1

Cc1cc(Nc2ncnc3cnc(N(C)[C@@H]4CNC[C@@H]4F)nc23)ccc1Oc1ccc2c(c1)ncn2C [Example 94, N2-((3R,4S)-4-fluoropyrrolidin-3-yl)-N2-methyl-N8-(3-methyl-4-((1-methyl-1H-benzo[d]imidazol-5-yl)oxy)phenyl)pyrimido[5,4-d]pyrimidine-2,8-diamine]
IC50 ([1]; read-out: Assay 1 IC50): 21.3 nM | IC50 (ErbB2 WT): 31.3 nM | IC50 (EGFR): 4360 nM | IC50 [2]: 20.3 nM | IC50 (EGFR wild type (EGFR WT)): ≥ 5000 nM | efflux ratio at 2 h, 1 μM (MDR1 (P-gp)): 12

Cc1cc(Nc2ncnc3cnc(N4CC[C@H](O)C4)nc23)ccc1Oc1ccc2c(c1)ncn2C [Example 174, (S)-1-(8-((3-methyl-4-((1-methyl-1H-benzo[d]imidazol-5-yl)oxy)phenyl)amino)pyrimido[5,4-d]pyrimidin-2-yl)pyrrolidin-3-ol]
IC50 ([1]; read-out: Assay 1 IC50): 11.5 nM | IC50 (ErbB2 WT): 31.4 nM | IC50 (EGFR): 2770 nM | IC50 [2]: 8 nM | IC50 (EGFR wild type (EGFR WT)): ≥ 5000 nM | efflux ratio at 2 h, 1 μM (MDR1 (P-gp)): 3.1

Cc1cc(Nc2ncnc3cnc(N4CC[C@H](CC#N)C4)nc23)ccc1Oc1ccc2c(c1)ncn2C [Example 469]
IC50 ([1]; read-out: Assay 1 IC50): 19.1 nM | IC50 (ErbB2 WT): 44.8 nM | IC50 (EGFR): ≥ 10000 nM | IC50 [2]: 13.1 nM | IC50 (EGFR wild type (EGFR WT)): ≥ 5000 nM | efflux ratio at 2 h, 1 μM (MDR1 (P-gp)): 1.6

Cc1cc(Nc2ncnc3cnc(N4CCC(CC#N)C4)nc23)ccc1Oc1ccc2c(c1)ncn2C (stereo not drawn) [Example 192, 2-(1-(8-((3-methyl-4-((1-methyl-1H-benzo[d]imidazol-5-yl)oxy)phenyl)amino)pyrimido[5,4-d]pyrimidin-2-yl)pyrrolidin-3-yl)acetonitrile]
IC50 ([1]; read-out: Assay 1 IC50): 19.1 nM | IC50 (ErbB2 WT): 44.8 nM | IC50 (EGFR): ≥ 10000 nM | IC50 [2]: 13.1 nM | IC50 (EGFR wild type (EGFR WT)): ≥ 5000 nM | efflux ratio at 2 h, 1 μM (MDR1 (P-gp)): 1.6

CO[C@@H]1CN(c2ncc3ncnc(Nc4ccc(Oc5ccc6c(c5)ncn6C)c(C)c4)c3n2)C[C@H]1O (racemic) [Example 107, ±(3R,4R)-4-methoxy-1-(8-((3-methyl-4-((1-methyl-1H-benzo[d]imidazol-5-yl)oxy)phenyl)amino)pyrimido[5,4-d]pyrimidin-2-yl)pyrrolidin-3-ol]
IC50 ([1]; read-out: Assay 1 IC50): 30.8 nM | IC50 (ErbB2 WT): 15.5 nM | IC50 (EGFR): ≥ 10000 nM | IC50 [2]: 31.3 nM | IC50 (EGFR wild type (EGFR WT)): ≥ 5000 nM | efflux ratio at 2 h, 1 μM (MDR1 (P-gp)): 3.2

Cc1cc(Nc2ncnc3cnc(N[C@@H]4CNCC4(F)F)nc23)ccc1Oc1ccc2c(c1)ncn2C [Example 297]
IC50 ([1]; read-out: Assay 1 IC50): 17.6 nM | IC50 (ErbB2 WT): 40 nM | IC50 (EGFR): 3320 nM | IC50 [2]: 29.4 nM | IC50 (EGFR wild type (EGFR WT)): ≥ 5000 nM | efflux ratio at 2 h, 1 μM (MDR1 (P-gp)): 3.2

Cn1cnc2cc(Oc3ccc(Nc4ncnc5cnc(N6CCN(C7COC7)CC6)nc45)cc3Cl)ccc21 [Example 485]
IC50 ([1]; read-out: Assay 1 IC50): 21.7 nM | IC50 (ErbB2 WT): 77.2 nM | IC50 (EGFR): ≥ 10000 nM | IC50 [2]: 11.1 nM | IC50 (EGFR wild type (EGFR WT)): ≥ 5000 nM | efflux ratio at 2 h, 1 μM (MDR1 (P-gp)): 1.3

Cc1cc(Nc2ncnc3cnc(N(C)[C@H]4C[C@@](C)(O)C4)nc23)ccc1Oc1ccc2c(c1)ncn2C [Example 165, (1s, 3s)-1-methyl-3-(methyl(8-((3-methyl-4-((1-methyl-1H-benzo[d]imidazol-5-yl)oxy)phenyl)amino)pyrimido[5,4-d]pyrimidin-2-yl)amino)cyclobutan-1-ol]
IC50 ([1]; read-out: Assay 1 IC50): 7.5 nM | IC50 (ErbB2 WT): 5.6 nM | IC50 (EGFR): 216 nM | IC50 [2]: 11.4 nM | IC50 (EGFR wild type (EGFR WT)): ≥ 5000 nM | efflux ratio at 2 h, 1 μM (MDR1 (P-gp)): 2.1

Cn1cnc2cc(Oc3ccc(Nc4ncnc5cnc(N6CCN7CCOC[C@H]7C6)nc45)cc3Cl)ccc21.O=C(O)C(F)(F)F.O=C(O)C(F)(F)F [Example 150, (R)—N-(3-chloro-4-((1-methyl-1H-benzo[d]imidazol-5-yl)oxy)phenyl)-6-(hexahydropyrazino[2,1-c][1,4]oxazin-8(1H)-yl)pyrimido[5,4-d]pyrimidin-4-amine bis(2,2,2-trifluoroacetate)]
IC50 ([1]; Assay 1 IC50 (nM)): 32 nM | IC50 (ErbB2 WT): 22.3 nM | IC50 (EGFR): ≥ 10000 nM | IC50 [2]: 9.1 nM | IC50 (EGFR wild type (EGFR WT)): ≥ 5000 nM | efflux ratio at 2 h, 1 μM (MDR1 (P-gp)): 2.2
